Experiments:
[1] = tested on: T-cells (TCR binding of antigen specific tetramers); assay: Tetramer staining of T-cells; type: cell-based, human; settings: T-cells expanded with 100 μM
regulatory T-cells = assay: Regulatory T-cell and FOXp3 analysis in T-cell cultures (FACS); type: cell-based, human; settings: T-cell culture
Procedure: Regulatory T-cells in cultures were identified using the Human Regulatory T-cell Cocktail (BD Pharmingen™) and analyzed using FACS. Briefly, cells were washed into BD stain buffer (BSA) with human Fc block (EMD Millipore) and incubated on ice for 30 min. Cells were then stained with fluorescently labeled Human Regulatory T-cell Cocktail (BD Pharmingen™, 1:100 in BD stain buffer (BSA)) or with appropriate isotype controls (ice, dark, 40 min). Cells were then washed twice in BD stain buffer (BSA) and analyzed on an LSRII flow cytometer. Regulatory T-cells were identified as CD4+, CD25+ and CD127 LOW.
T-cells were prepared in the same manner as for intracellular staining as above, where they were fixed and permeabilized and stained with an anti-FOXp3 antibody (BD Biosciences) and analyzed by FACS. In brief, after incubation in BD stain buffer (FBS) with Human Fc block (Miltenyi Biotec) on ice for 30 min as described previously, cells were stained with anti-CD4 antibody for 20 min in the dark (RT). An equal volume of BD stain buffer (FBS) was added and samples were spun and washed once in BD stain buffer (FBS) followed by resuspension in cold BD Cytofix™ fixation buffer for 30 min at RT. Cells were pelleted washed twice in BD stain buffer (FBS), resuspended, and incubated in BD Perm/Wash™ buffer at RT for 30 min. […]

A20 tumor vaccine model = assay: Serum cytokines in A20 vaccine model; type: in vivo; settings: BALB/c mice, with KLH-Idiotype vaccine vs KLH-Idiotype alone, no depletion
Procedure: KLH-A20 Id Fab was generated as described in Okeley et al PNAS 2012. A20 cells (ATCC) were cultured in RPMI 1640 with 10% FBS, 10 mM HEPES, 1 mM sodium pyruvate, 50 μM 2-mercaptoethanol and penicillin (100 U/ml)/streptomycin (100 μg/ml) (PS) Immunization groups (BALB/c, Harlan) were injected subcutaneously with the KLH-Fab conjugate (50 μg) with TiterMax adjuvant (1:1) on day-21 with a boost on day-7. 2-deoxy-2-fluoro-L-fucose treatment groups received drinking water containing 20 mM 2-deoxy-2-fluoro-L-fucose beginning on day -14. One week after the second vaccination (day 0), all mice received 2.5×10^6 A20 tumor cells (i.v.). 2-deoxy-2-fluoro-L-fucose treatment was continued until day 21 followed by normal drinking water. Depletion of immune cells was accomplished with depleting antibodies administered on days-6, -5, -4, 0 and +7 (200 μg/mouse i.p.). CD4 or CD8 T-cells depletion by anti-CD4 (GK1.5) or -CD8 (53-6.72) antibody was verified in blood at day-1, 7, 14, 21, 29 (FACS analysis). […] Thus CD4 and CD8 T-cells play a role in the combination activity.
Tissue culture supernatants from T-cell/DC co-cultures described previously were collected and assessed for cytokine changes by Luminex assay. Similarly, blood samples from an A20 vaccine model study were allowed to clot and serum was collected for analysis of cytokines (MCYTOMAG01L1X-13 Mouse Cytokine Magnetic Bead Panel, Millipore).

[2] = tested on: regulatory T-cells (CD3+, CD4+, CD25+, FOXp3+); assay: Regulatory T-cells in blood of rats dosed by oral gavage for 42 days (flow cytometry); type: in vivo, Sprague-Dawley rats; settings: for Treg % Gated, percent change relative to pretest means: rat
Procedure: Sprague-Dawley rats (CD®[Crl:CD®(SD)] were administered 2-deoxy-2-fluoro-L-fucose by oral gavage daily for 42 consecutive days at doses of 0, 125, 500 or 2000 mg/kg/day. Blood samples (0.4 mL/timepoint) were collected in sodium heparin at pretest and days 2, 7, 22, 43, 49, 56, and 71 of the study. Samples were processed within 24 hours of collection. Aliquots of the specimens were stained with predetermined volumes of previously tested and titered monoclonal antibodies specific for each marker. The red cells in each tube were lysed and after staining the cells were fixed with Versalyse Lysis Buffer solution (Beckman Coulter). The prepared specimens were analyzed on a Beckman-Coulter FC 500 MPL flow cytometer.

## C[C@@H]1OC(O)[C@@H](F)[C@H](O)[C@@H]1O (stereo partly drawn) [2-deoxy-2-fluoro-L-fucose]
[1]
  EBV-specific tetramer binding to treated T-cells vs control cells (flow cytometry): increase in EBV-specific tetramer binding
  tetramer binding with other antigens (flu, CMV) to treated T-cells vs control cells: slight increases
Regulatory T-cells; CD4+, CD25+, CD127 LOW
  regulatory T-cell populations (percent of total cells): decrease in regulatory T-cell populations
Regulatory T-cells; gated on CD4+
  expression of FOXp3+ in treated T-cells: decreased expression of FOXp3+
A20 tumor vaccine model
  serum cytokines important for immune responses (IL15) in A20 tumor vaccine model: specific increases in cytokines
[2]; F, 125 mg/kg/day oral gavage, Day 2
  Treg % Gated, percent change relative to pretest means: −54%
[2]; F, 125 mg/kg/day oral gavage, Day 7
  Treg % Gated, percent change relative to pretest means: −67%
[2]; F, 125 mg/kg/day oral gavage, Day 22
  Treg % Gated, percent change relative to pretest means: −61%
[2]; F, 125 mg/kg/day oral gavage, Day 43
  Treg % Gated, percent change relative to pretest means: −64%
[2]; F, 125 mg/kg/day oral gavage, Day 49, recovery period
  Treg % Gated, percent change relative to pretest means: −40%
[2]; F, 125 mg/kg/day oral gavage, Day 56, recovery period
  Treg % Gated, percent change relative to pretest means: −51%
[2]; F, 125 mg/kg/day oral gavage, Day 71, recovery period
  Treg % Gated, percent change relative to pretest means: −45%
[2]; F, 500 mg/kg/day oral gavage, Day 2
  Treg % Gated, percent change relative to pretest means: −56%
[2]; F, 500 mg/kg/day oral gavage, Day 7
  Treg % Gated, percent change relative to pretest means: −60%
[2]; F, 500 mg/kg/day oral gavage, Day 22
  Treg % Gated, percent change relative to pretest means: −60%
[2]; F, 500 mg/kg/day oral gavage, Day 43
  Treg % Gated, percent change relative to pretest means: −50%
[2]; F, 500 mg/kg/day oral gavage, Day 49, recovery period
  Treg % Gated, percent change relative to pretest means: −43%
[2]; F, 500 mg/kg/day oral gavage, Day 56, recovery period
  Treg % Gated, percent change relative to pretest means: −38%
[2]; F, 500 mg/kg/day oral gavage, Day 71, recovery period
  Treg % Gated, percent change relative to pretest means: −40%
[2]; F, 2000 mg/kg/day oral gavage, Day 2
  Treg % Gated, percent change relative to pretest means: −41%
[2]; F, 2000 mg/kg/day oral gavage, Day 7
  Treg % Gated, percent change relative to pretest means: −39%
[2]; F, 2000 mg/kg/day oral gavage, Day 22
  Treg % Gated, percent change relative to pretest means: −43%
[2]; F, 2000 mg/kg/day oral gavage, Day 43
  Treg % Gated, percent change relative to pretest means: −28%
[2]; F, 2000 mg/kg/day oral gavage, Day 49, recovery period
  Treg % Gated, percent change relative to pretest means: −19%
[2]; F, 2000 mg/kg/day oral gavage, Day 56, recovery period
  Treg % Gated, percent change relative to pretest means: −16%
[2]; F, 2000 mg/kg/day oral gavage, Day 71, recovery period
  Treg % Gated, percent change relative to pretest means: −26%
[2]; M, 125 mg/kg/day oral gavage, Day 2
  Treg % Gated, percent change relative to pretest means: −44%
[2]; M, 125 mg/kg/day oral gavage, Day 7
  Treg % Gated, percent change relative to pretest means: −64%
[2]; M, 125 mg/kg/day oral gavage, Day 22
  Treg % Gated, percent change relative to pretest means: −65%
[2]; M, 125 mg/kg/day oral gavage, Day 43
  Treg % Gated, percent change relative to pretest means: −59%
[2]; M, 125 mg/kg/day oral gavage, Day 49, recovery period
  Treg % Gated, percent change relative to pretest means: −46%
[2]; M, 125 mg/kg/day oral gavage, Day 56, recovery period
  Treg % Gated, percent change relative to pretest means: −47%
[2]; M, 125 mg/kg/day oral gavage, Day 71, recovery period
  Treg % Gated, percent change relative to pretest means: −42%
[2]; M, 500 mg/kg/day oral gavage, Day 2
  Treg % Gated, percent change relative to pretest means: −61%
[2]; M, 500 mg/kg/day oral gavage, Day 7
  Treg % Gated, percent change relative to pretest means: −63%
[2]; M, 500 mg/kg/day oral gavage, Day 22
  Treg % Gated, percent change relative to pretest means: −64%
[2]; M, 500 mg/kg/day oral gavage, Day 43
  Treg % Gated, percent change relative to pretest means: −58%
[2]; M, 500 mg/kg/day oral gavage, Day 49, recovery period
  Treg % Gated, percent change relative to pretest means: −48%
[2]; M, 500 mg/kg/day oral gavage, Day 56, recovery period
  Treg % Gated, percent change relative to pretest means: −47%
[2]; M, 500 mg/kg/day oral gavage, Day 71, recovery period
  Treg % Gated, percent change relative to pretest means: −48%
[2]; M, 2000 mg/kg/day oral gavage, Day 2
  Treg % Gated, percent change relative to pretest means: −42%
[2]; M, 2000 mg/kg/day oral gavage, Day 7
  Treg % Gated, percent change relative to pretest means: −43%
[2]; M, 2000 mg/kg/day oral gavage, Day 22
  Treg % Gated, percent change relative to pretest means: −51%
[2]; M, 2000 mg/kg/day oral gavage, Day 43
  Treg % Gated, percent change relative to pretest means: −29%
[2]; M, 2000 mg/kg/day oral gavage, Day 49, recovery period
  Treg % Gated, percent change relative to pretest means: −6%
[2]; M, 2000 mg/kg/day oral gavage, Day 56, recovery period
  Treg % Gated, percent change relative to pretest means: −12%
[2]; M, 2000 mg/kg/day oral gavage, Day 71, recovery period
  Treg % Gated, percent change relative to pretest means: −13%
[2]; rats, all dosed groups (125, 500, 2000 mg/kg/day), beginning at Day 2
  relative proportion of regulatory T-cells (CD3+, CD4+, CD25+, FOXp3+) relative to pretest values: tended to decrease
